Holding throughout (type): biochemical
Experiment [1] concerns the target T1, KPC-2 (Klebsiella pneumoniae, UniProt Q9F663). Kind of experiment: nitrocefin hydrolysis at […] nm, […] min pre-incubation.
The target of experiment [2] is T1, KPC-2. Kind of experiment: steady-state kinetics of hydrolysis at […] nm.
Experiment [3] has as its target T1, KPC-2. Kind of experiment: nitrocefin hydrolysis at […] nm, […] min pre-incubation. The source holds these as a separate data set.

pIC50: −log10 of the molar value. Read-outs that look alike come from different tables or passages of the source.

Our source for the IC50 and Km values is article PMC2707266 (2009).

In general, pIC50 refers to the negative decadic logarithm of the IC50, by convention in mol/L. Higher therefore signals a low IC50. As a reminder, the Km is the substrate concentration at which the rate is half of its maximum.

T1 sequence (Q9F663 25-293, looked up): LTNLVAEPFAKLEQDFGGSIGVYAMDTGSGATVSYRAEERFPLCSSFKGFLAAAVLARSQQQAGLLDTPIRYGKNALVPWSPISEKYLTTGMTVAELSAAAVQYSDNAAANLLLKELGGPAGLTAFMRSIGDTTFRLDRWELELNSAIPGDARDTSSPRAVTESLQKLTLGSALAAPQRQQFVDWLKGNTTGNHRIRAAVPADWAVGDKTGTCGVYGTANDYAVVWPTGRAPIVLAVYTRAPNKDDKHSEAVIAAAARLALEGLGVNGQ

The compound `O=C(O)[C@H]1/C(=C/CO)O[C@@H]2CC(=O)N21` [clavulanate] had a pIC50 on KPC-2 [1] of 5.19.
As to `O=C(Cc1cccs1)N[C@@H]1C(=O)N2C(C(=O)O)=C(/C=C/c3ccc([N+](=O)[O-])cc3[N+](=O)[O-])CS[C@H]12` [nitrocefin], the Km on KPC-2 [2] turned out to be 52 µM.
Consider `C[C@]1(Cn2ccnn2)[C@H](C(=O)O)N2C(=O)C[C@H]2S1(=O)=O` [tazobactam], for which, on KPC-2 [3], the pIC50 was 5.04.
